Test results as given in US20110159520A1, “HYBRID PROTEINS COMPRISING MEMBRANE RECEPTOR AND ION CHANNEL, AND THEIR USE AS BIOSENSORS” (UNIVERSITE JOSEPH FOURIER, priority 2008, published 2011).

How the values were obtained:
M2−K 0-25 hybrid protein = target: T1, M2−K 0-25 hybrid protein (UniProt P08172+Q61743); assay type: cell-based, human M2, mouse Kir6.2
T1 construct: expressed in transfected cells; host or cells: Xenopus oocytes injected with cRNA (whole-cell TEVC, or outside-out patches excised from them)
T1 sequence (P08172+Q61743 with tags, fused parts or gaps): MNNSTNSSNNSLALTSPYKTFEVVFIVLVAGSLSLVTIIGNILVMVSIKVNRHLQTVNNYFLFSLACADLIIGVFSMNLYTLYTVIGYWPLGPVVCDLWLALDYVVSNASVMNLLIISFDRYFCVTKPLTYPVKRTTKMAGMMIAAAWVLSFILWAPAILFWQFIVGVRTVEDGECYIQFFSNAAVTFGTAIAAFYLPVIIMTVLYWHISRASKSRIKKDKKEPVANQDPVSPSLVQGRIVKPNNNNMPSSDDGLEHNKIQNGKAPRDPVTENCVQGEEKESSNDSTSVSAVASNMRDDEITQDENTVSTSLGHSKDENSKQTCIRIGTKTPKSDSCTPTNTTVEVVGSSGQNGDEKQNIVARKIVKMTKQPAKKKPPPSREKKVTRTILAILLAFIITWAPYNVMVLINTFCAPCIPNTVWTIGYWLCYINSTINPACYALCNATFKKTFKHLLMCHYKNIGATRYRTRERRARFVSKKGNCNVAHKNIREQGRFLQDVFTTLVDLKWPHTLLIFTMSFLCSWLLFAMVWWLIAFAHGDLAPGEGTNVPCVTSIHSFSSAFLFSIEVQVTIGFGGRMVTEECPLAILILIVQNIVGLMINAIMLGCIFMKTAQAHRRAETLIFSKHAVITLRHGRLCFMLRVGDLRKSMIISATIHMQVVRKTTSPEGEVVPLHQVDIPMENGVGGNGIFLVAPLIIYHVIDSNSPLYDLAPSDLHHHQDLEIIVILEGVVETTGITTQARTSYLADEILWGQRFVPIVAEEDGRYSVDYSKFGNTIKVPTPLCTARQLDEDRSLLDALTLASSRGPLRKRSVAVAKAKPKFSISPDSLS
Procedure: Xenopus oocytes defoliculated by collagenase treatment were microinjected with 50 nl of water containing one or a mixture of the following quantities of cRNA:
Oocytes were incubated in individual wells in Barth's solution (KCl 1 mM, MgSO4 0.82 mM, NaCl 88 mM, NaHCO3 2.4 mM, CaCl2 0.41 mM, Ca(NO3)2 0.3 mM, Hepes 16 mM, pH 7.4) supplemented with 100 U·ml^−1 penicillin, 100 μg ml^−1 streptomycin and […] gentamycin, for at least 48 hrs at 19° C. before characterization.
(§1) Whole-cell currents were measured using two-electrode voltage clamp (TEVC). Microelectrodes were filled with 3 M KCl and oocytes were bathed in a solution having (in mM): 91 KCl, 1.8 CaCl2, 1 MgCl2, 5 HEPES (pH 7.4) and 0.3 niflumic acid to block endogenous chloride current.
Unless otherwise specified, the concentration of M2 ligands was 5 μM.
(§2) The TEVC voltage protocol consisted of 500-ms steps to −50, 0 and +50 mV—during which current was measured—repeated every 5 s, the holding potential being 0 mV.
(§3) Average values are presented as mean±s.e.m. Non-linear least-square curve fitting to the data points obtained at various concentrations of activating or inhibiting ligands was done using a standard Hill equation: […]
Ba^2+ was used as a generic K^+ channel blocker. Percent changes in current were calculated with respect to the baseline extrapolated from measurements of Ba^2+-sensitive currents before and after agonist application. This method emphasizes reversibility and provides an underestimate of the true effects. For dose-response data, which were acquired by applying sequentially increasing concentrations of modulator to the same patch or oocyte, changes in current could only be measured with respect to the current before application, yielding somewhat larger values.

M2−K 0-20 hybrid protein = target: T2, M2−K 0-20 hybrid protein (UniProt P08172+Q61743); assay: TEVC recordings from xenopus oocytes expressing M2−K 0-20; assay type: cell-based, human M2, mouse Kir6.2
T2 construct: expressed in transfected cells; host or cells: Xenopus oocytes injected with cRNA
T2 sequence (P08172+Q61743 with tags, fused parts or gaps): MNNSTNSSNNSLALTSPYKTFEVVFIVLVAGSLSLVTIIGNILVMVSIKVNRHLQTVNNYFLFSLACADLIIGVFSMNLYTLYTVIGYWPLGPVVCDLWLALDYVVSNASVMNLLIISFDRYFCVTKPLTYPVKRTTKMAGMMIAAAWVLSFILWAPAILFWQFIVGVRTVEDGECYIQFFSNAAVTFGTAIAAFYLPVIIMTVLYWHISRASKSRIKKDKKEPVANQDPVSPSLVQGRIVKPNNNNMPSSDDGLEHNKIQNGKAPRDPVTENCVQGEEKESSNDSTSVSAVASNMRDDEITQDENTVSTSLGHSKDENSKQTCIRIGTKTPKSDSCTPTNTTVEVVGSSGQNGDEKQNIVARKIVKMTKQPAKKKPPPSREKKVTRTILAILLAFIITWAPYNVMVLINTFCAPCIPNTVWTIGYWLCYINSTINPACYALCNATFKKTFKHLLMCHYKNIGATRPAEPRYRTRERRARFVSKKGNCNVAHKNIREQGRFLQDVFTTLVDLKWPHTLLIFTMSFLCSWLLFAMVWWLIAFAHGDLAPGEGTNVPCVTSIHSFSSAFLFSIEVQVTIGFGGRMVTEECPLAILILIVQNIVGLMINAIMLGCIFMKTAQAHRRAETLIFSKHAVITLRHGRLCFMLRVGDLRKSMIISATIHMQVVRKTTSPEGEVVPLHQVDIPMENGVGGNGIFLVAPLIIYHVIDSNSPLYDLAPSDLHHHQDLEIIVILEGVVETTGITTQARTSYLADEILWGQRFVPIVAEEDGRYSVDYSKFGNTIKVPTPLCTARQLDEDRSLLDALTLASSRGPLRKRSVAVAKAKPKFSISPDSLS
Procedure: as §1, §2, §3
(§4) Ba^2+ was used as a generic K^+ channel blocker. Percent changes in current were calculated with respect to the baseline extrapolated from measurements of Ba^2+-sensitive currents before and after agonist application.

D2-K 0-25 hybrid protein = D2-K 0-25 hybrid protein (UniProt P14416+Q61743); conditions: sulpiride 5 μM during quinpirole 5 μM
Procedure: as §1, §2, §3, §4

[1] = system: CCR2 chemokine receptor fused to Kir6.2 deleted in its N-terminus part; assay: Electric flux of CCR2-Kir6.2 fusion protein; assay type: cell-based; conditions: final concentration from about 0.3 μM to about 2 μM
Chain of CCR2 chemokine receptor fused to Kir6.2 deleted in its N-terminus part (P41597 1-313 limits assumed): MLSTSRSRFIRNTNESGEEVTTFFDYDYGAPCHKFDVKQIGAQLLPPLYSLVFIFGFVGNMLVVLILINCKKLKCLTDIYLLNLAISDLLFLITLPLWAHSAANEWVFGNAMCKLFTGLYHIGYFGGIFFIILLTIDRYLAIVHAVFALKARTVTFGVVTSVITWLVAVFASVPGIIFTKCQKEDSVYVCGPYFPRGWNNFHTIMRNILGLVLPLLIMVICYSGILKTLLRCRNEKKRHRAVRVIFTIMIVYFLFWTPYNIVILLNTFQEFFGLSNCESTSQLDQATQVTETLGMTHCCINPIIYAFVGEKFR

Chain of D2-K 0-25 hybrid protein (P14416+Q61743 fused): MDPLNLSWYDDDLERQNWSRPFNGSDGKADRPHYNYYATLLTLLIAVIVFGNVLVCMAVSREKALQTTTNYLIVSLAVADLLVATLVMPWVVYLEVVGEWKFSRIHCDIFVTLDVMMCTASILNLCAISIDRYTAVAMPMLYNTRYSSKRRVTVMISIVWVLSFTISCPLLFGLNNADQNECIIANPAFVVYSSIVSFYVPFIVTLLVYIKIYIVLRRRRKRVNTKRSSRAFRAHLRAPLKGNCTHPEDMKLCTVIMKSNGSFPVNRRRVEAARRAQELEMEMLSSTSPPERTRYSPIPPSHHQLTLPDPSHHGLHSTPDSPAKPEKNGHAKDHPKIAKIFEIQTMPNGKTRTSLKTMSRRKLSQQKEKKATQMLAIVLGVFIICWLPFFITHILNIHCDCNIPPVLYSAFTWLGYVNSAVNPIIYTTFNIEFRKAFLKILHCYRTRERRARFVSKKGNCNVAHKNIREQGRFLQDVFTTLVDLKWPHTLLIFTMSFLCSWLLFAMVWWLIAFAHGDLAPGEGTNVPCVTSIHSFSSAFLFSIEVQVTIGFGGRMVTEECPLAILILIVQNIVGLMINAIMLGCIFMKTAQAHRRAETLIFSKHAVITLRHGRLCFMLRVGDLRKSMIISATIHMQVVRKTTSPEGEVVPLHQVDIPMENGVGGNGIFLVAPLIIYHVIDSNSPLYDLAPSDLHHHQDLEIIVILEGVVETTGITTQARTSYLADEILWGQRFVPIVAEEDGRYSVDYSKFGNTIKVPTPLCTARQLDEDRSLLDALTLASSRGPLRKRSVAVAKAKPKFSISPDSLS

C[N+](C)(C)CCOC(N)=O [CCh, carbachol]
change of current induced by CCh (dose response) (M2−K 0-25 hybrid protein; increasing CCh concentrations, M2−K 0-25): stimulated, in a dose-dependent manner
change of current induced by CCh (dose response) (M2−K 0-20 hybrid protein; increasing CCh concentrations): stimulated, in a dose-dependent manner

NCCc1ccc(O)c(O)c1 [Dopamine]
sensitivity of M2−K 0-25 to Dopa (M2−K 0-25 hybrid protein; Dopa 5 μM, TEVC): insensitive

CN1[C@@H]2CC[C@H]1C[C@@H](OC(=O)C(CO)c1ccccc1)C2 (stereo partly shown) [atropine]
effect of antagonist on ACh-induced current (M2−K 0-25 hybrid protein): inhibits the ACh-induced current
effect of antagonist on ACh-induced current (M2−K 0-20 hybrid protein; atropine 1 μM with ACh 5 μM): inhibits the ACh-induced current

CCN1CCCC1CNC(=O)c1cc(S(N)(=O)=O)ccc1OC (stereo not shown) [sulpiride]
effect of antagonist on quinpirole-induced decrease in current (D2-K 0-25 hybrid protein): reversed

CCL2: CCR2 agonist: CCL2 or MCP1
generation of electric flux after stimulating the receptor [1]: generation of an electric flux
